Converted amounts (≈) assume the structure as drawn. Values belong to the compound of their own block, whether it stands above or below them.
Tests used:
[1] = test system: Bacillus subtilis; assay: Potency index, ratio of ciprofloxacin MIC to test compound MIC for antimicrobial activity against Bacillus subtilis; assay type: functional
[2] = test system: Bacillus subtilis; assay: Antimicrobial activity against Bacillus subtilis; assay type: functional
[3] = test system: Escherichia coli; assay: Potency index, ratio of ciprofloxacin MIC to test compound MIC for antimicrobial activity against Escherichia coli; assay type: functional
[4] = test system: Escherichia coli; assay: Antimicrobial activity against Escherichia coli; assay type: functional
[5] = test system: C6; assay: Anticancer activity against rat C6 cells; assay type: functional, cell-based
[6] = test system: NIH3T3; assay: Cytotoxicity against mouse NIH/3T3 cells assessed as reduction in cell viability; assay type: cell-based
[7] = test system: Proteus mirabilis; assay: Antimicrobial activity against Proteus mirabilis; assay type: functional
[8] = test system: Staphylococcus epidermidis; assay: Antimicrobial activity against Staphylococcus epidermidis; assay type: functional
[9] = test system: Aspergillus niger; assay: Antifungal activity against Aspergillus niger; assay type: functional
[10] = test system: Staphylococcus aureus; assay: Antimicrobial activity against Staphylococcus aureus; assay type: functional
[11] = test system: Candida albicans; assay: Antifungal activity against Candida albicans; assay type: functional
[12] = test system: Pseudomonas aeruginosa; assay: Antimicrobial activity against Pseudomonas aeruginosa; assay type: functional
[13] = test system: Nakaseomyces glabratus; assay: Antifungal activity against Candida glabrata; assay type: functional
[14] = test system: Pichia kudriavzevii; assay: Antifungal activity against Candida krusei
[15] = test system: Candida tropicalis; assay: Antifungal activity against Candida tropicalis; assay type: functional
[16] = test system: Escherichia coli; assay: Antimicrobial activity against Escherichia coli assessed as zone of inhibition at 5 mg/ml after 24 to 48 hrs by well diffusion method; assay type: functional; conditions: read-out: IZ
[17] = test system: Staphylococcus aureus; assay: Antimicrobial activity against Staphylococcus aureus assessed as zone of inhibition at 5 mg/ml after 24 to 48 hrs by well diffusion method; assay type: functional; conditions: read-out: IZ
[18] = test system: Bacillus subtilis; assay: Antimicrobial activity against Bacillus subtilis assessed as zone of inhibition at 5 mg/ml after 24 to 48 hrs by well diffusion method; assay type: functional; conditions: read-out: IZ
[19] = test system: Pseudomonas aeruginosa; assay: Antimicrobial activity against Pseudomonas aeruginosa assessed as zone of inhibition at 5 mg/ml after 24 to 48 hrs by well diffusion method; assay type: functional; conditions: read-out: IZ
[20] = test system: Aspergillus flavus; assay: Antifungal activity against Aspergillus flavus; assay type: functional
[21] = test system: Talaromyces purpureogenus; assay: Antifungal activity against Penicillium purpurogenum; assay type: functional
[22] = test system: Trichothecium roseum; assay: Antifungal activity against Trichothecium roseum; assay type: functional
[23] = test system: Bacillus cereus; assay: Antimicrobial activity against Bacillus cereus; assay type: functional
[24] = test system: Salmonella typhimurium; assay: Antimicrobial activity against Salmonella typhimurium; assay type: functional, Salmonella enterica subsp. enterica serovar Typhimurium; conditions: Salmonella enterica
[25] = test system: Proteus vulgaris; assay: Antimicrobial activity against Proteus vulgaris; assay type: functional
[26] = test system: Listeria monocytogenes; assay: Antimicrobial activity against Listeria monocytogenes; assay type: functional
[27] = test system: Enterococcus faecalis; assay: Antimicrobial activity against Enterococcus faecalis; assay type: functional
[28] = test system: Klebsiella pneumoniae; assay: Antimicrobial activity against Klebsiella pneumoniae; assay type: functional
[29] = test system: Candida albicans; assay: Antifungal activity against Candida albicans assessed as zone of inhibition at 10 ug/ml; assay type: functional; conditions: read-out: IZ
[30] = test system: Streptomyces; assay: Antimicrobial activity against Streptomyces assessed as zone of inhibition at 10 ug/ml; assay type: functional; conditions: read-out: IZ
[31] = Antifungal activity against Rhodotorula ingeniosa assessed as zone of inhibition at 10 ug/ml; assay type: functional; conditions: Sampaiozyma ingeniosa; read-out: IZ
[32] = test system: Aspergillus niger; assay: Antifungal activity against Aspergillus niger NCIM 545 after 48 hrs by NCCLS protocol based method; assay type: functional; conditions: NCIM 545, 48 h
[33] = test system: Bacillus subtilis; assay: Antimicrobial activity against Bacillus subtilis NCIM 2250 after 48 hrs by NCCLS protocol based method; assay type: functional; conditions: NCIM 2250, 48 h
[34] = test system: Lactococcus lactis; assay: Antimicrobial activity against Streptococcus lactis assessed as zone of inhibition at 10 ug/ml; assay type: functional; conditions: read-out: IZ
[35] = test system: Penicillium; assay: Antifungal activity against Penicillium assessed as zone of inhibition at 10 ug/ml; assay type: functional; conditions: read-out: IZ
[36] = test system: Aspergillus niger; assay: Antifungal activity against Aspergillus niger assessed as zone of inhibition at 10 ug/ml; assay type: functional; conditions: read-out: IZ
[37] = test system: Pseudomonas; assay: Antimicrobial activity against Pseudomonas assessed as zone of inhibition at 10 ug/ml; assay type: functional; conditions: read-out: IZ
[38] = test system: Bacillus subtilis; assay: Antimicrobial activity against Bacillus subtilis assessed as zone of inhibition at 10 ug/ml; assay type: functional; conditions: read-out: IZ
[39] = test system: Escherichia coli; assay: Antimicrobial activity against Escherichia coli ATCC 25922 after 48 hrs by NCCLS protocol based method; assay type: functional; conditions: ATCC 25922, 48 h
[40] = test system: Escherichia coli; assay: Antimicrobial activity against Escherichia coli assessed as zone of inhibition at 10 ug/ml; assay type: functional; conditions: read-out: IZ
[41] = test system: Candida albicans; assay: Antifungal activity against Candida albicans MTCC 277 after 48 hrs by NCCLS protocol based method; assay type: functional; conditions: MTCC 277, 48 h
[42] = test system: Escherichia coli; assay: Antimicrobial activity against Escherichia coli assessed as zone of inhibition at 600 ug/ml after 24 hrs by disk diffusion method; assay type: functional; conditions: read-out: IZ
[43] = Half life in rat; assay type: ADME; conditions: in vivo
[44] = Clearance in rat; assay type: ADME; conditions: in vivo

MIC [2]: 8.33 µg/mL (≈ 17.7 µM)
MIC [4]: 7.7 µg/mL (≈ 16.4 µM)
SMILES: COc1ccc(/C=C2\SC(=O)N(Cc3ccc(-c4ccccc4-c4nnn[nH]4)cc3)C2=O)cc1
Ratio [1]: >2.91
Ratio [3]: >2.91

IC50 [5]: 8.3 µg/mL (≈ 17.1 µM)
SMILES: O=C(CSc1nnnn1-c1ccccc1)N/N=c1\scc(-c2ccccc2)n1-c1ccccc1
IC50 [6]: 417 µg/mL (≈ 858 µM)

MIC [7]: 3.12 to 25 µg/mL (≈ 7.49 to 59.9 µM)
MIC [8]: 3.12 to 25 µg/mL (≈ 7.49 to 59.9 µM)
MIC [9]: 3.12 to 25 µg/mL (≈ 7.49 to 59.9 µM)
MIC [10]: 3.12 to 25 µg/mL (≈ 7.49 to 59.9 µM)
MIC [4]: 3.12 to 25 µg/mL (≈ 7.49 to 59.9 µM)
MIC [11]: 3.12 to 25 µg/mL (≈ 7.49 to 59.9 µM)
MIC [12]: 3.12 to 25 µg/mL (≈ 7.49 to 59.9 µM)
SMILES: COc1ccc(C2=NN(C(N)=S)C(c3cc4ccc(C)cc4n4nnnc34)C2)cc1 (centres undefined)

MIC [13]: 16 to 64 µg/mL (≈ 22.5 to 89.9 µM)
MIC [2]: 16 to 64 µg/mL (≈ 22.5 to 89.9 µM)
MIC [10]: 16 to 64 µg/mL (≈ 22.5 to 89.9 µM)
MIC [14]: 16 to 64 µg/mL (≈ 22.5 to 89.9 µM)
MIC [4]: 16 to 64 µg/mL (≈ 22.5 to 89.9 µM)
MIC [11]: 16 to 64 µg/mL (≈ 22.5 to 89.9 µM)
MIC [12]: 16 to 64 µg/mL (≈ 22.5 to 89.9 µM)
MIC [15]: 16 to 64 µg/mL (≈ 22.5 to 89.9 µM)
SMILES: Fc1cc2[nH]c(SCc3ccc(-c4ccccc4-c4nnnn4C(c4ccccc4)(c4ccccc4)c4ccccc4)cc3)nc2cc1-n1cncn1

SMILES: Cc1c(-c2cc(-c3ccc(-c4cc(-c5cnn(-c6ccccc6)c5C)n5nnnc5n4)cc3)nc3nnnn23)cnn1-c1ccccc1
zone of inhibition at 5000 µg/mL [16]: 8.1 to 9.9 mm
zone of inhibition at 5000 µg/mL [17]: 8.1 to 9.9 mm
zone of inhibition at 5000 µg/mL [18]: 8.1 to 9.9 mm
zone of inhibition at 5000 µg/mL [19]: 8.1 to 9.9 mm

MIC [20]: 30 to 40 µg/mL (≈ 87.9 to 117 µM)
MIC [21]: 30 to 40 µg/mL (≈ 87.9 to 117 µM)
MIC [2]: 30 to 40 µg/mL (≈ 87.9 to 117 µM)
MIC [22]: 30 to 40 µg/mL (≈ 87.9 to 117 µM)
MIC [23]: 30 to 40 µg/mL (≈ 87.9 to 117 µM)
MIC [4]: 30 to 40 µg/mL (≈ 87.9 to 117 µM)
MIC [12]: 30 to 40 µg/mL (≈ 87.9 to 117 µM)
SMILES: N=C(N)Nc1nnn(Cc2ccccc2Cn2nnc(C(=N)N)n2)n1

MIC [24]: 12.5 to 400 µg/mL (≈ 24.5 to 784 µM)
MIC [13]: 12.5 to 400 µg/mL (≈ 24.5 to 784 µM)
MIC [25]: 12.5 to 400 µg/mL (≈ 24.5 to 784 µM)
MIC [2]: 12.5 to 400 µg/mL (≈ 24.5 to 784 µM)
MIC [10]: 12.5 to 400 µg/mL (≈ 24.5 to 784 µM)
MIC [26]: 12.5 to 400 µg/mL (≈ 24.5 to 784 µM)
MIC [4]: 12.5 to 400 µg/mL (≈ 24.5 to 784 µM)
MIC [27]: 12.5 to 400 µg/mL (≈ 24.5 to 784 µM)
MIC [11]: 12.5 to 400 µg/mL (≈ 24.5 to 784 µM)
MIC [12]: 12.5 to 400 µg/mL (≈ 24.5 to 784 µM)
MIC [15]: 12.5 to 400 µg/mL (≈ 24.5 to 784 µM)
MIC [28]: 12.5 to 400 µg/mL (≈ 24.5 to 784 µM)
SMILES: Cn1c(-c2ccc(NC(=O)CSc3nnnn3-c3ccccc3)cc2)nc2cc(Cl)c(Cl)cc21

MIC [13]: 16 to 64 µg/mL (≈ 22.5 to 90 µM)
MIC [2]: 16 to 64 µg/mL (≈ 22.5 to 90 µM)
MIC [10]: 16 to 64 µg/mL (≈ 22.5 to 90 µM)
MIC [14]: 16 to 64 µg/mL (≈ 22.5 to 90 µM)
MIC [4]: 16 to 64 µg/mL (≈ 22.5 to 90 µM)
MIC [11]: 16 to 64 µg/mL (≈ 22.5 to 90 µM)
MIC [12]: 16 to 64 µg/mL (≈ 22.5 to 90 µM)
MIC [15]: 16 to 64 µg/mL (≈ 22.5 to 90 µM)
SMILES: Fc1cc2nc(SCc3ccc(-c4ccccc4-c4nnnn4C(c4ccccc4)(c4ccccc4)c4ccccc4)cc3)[nH]c2cc1-n1ccnc1

MIC [2]: 200 to 400 µg/mL (≈ 344 to 688 µM)
MIC [32]: 10 µg/mL (≈ 17.2 µM)
MIC [33]: 10 µg/mL (≈ 17.2 µM)
MIC [10]: 200 to 400 µg/mL (≈ 344 to 688 µM)
MIC [4]: 200 to 400 µg/mL (≈ 344 to 688 µM)
MIC [12]: 200 to 400 µg/mL (≈ 344 to 688 µM)
MIC [39]: 10 µg/mL (≈ 17.2 µM)
MIC [41]: 10 µg/mL (≈ 17.2 µM)
SMILES: CN[C@@H]1[C@H](O[C@H]2[C@H](O[C@H]3[C@H](O)[C@@H](O)[C@H](N=C(N)N)[C@@H](O)[C@@H]3N=C(N)N)O[C@@H](C)[C@]2(O)C=O)O[C@@H](CO)[C@H](O)[C@H]1O [STREPTOMYCIN]
zone of inhibition at 10 µg/mL [29]: 21 to 22 mm
zone of inhibition at 10 µg/mL [30]: 21 to 22 mm
zone of inhibition at 10 µg/mL [31]: 21 to 22 mm
zone of inhibition at 5000 µg/mL [16]: 26.9 mm
zone of inhibition at 10 µg/mL [34]: 21 to 22 mm
zone of inhibition at 10 µg/mL [35]: 21 to 22 mm
zone of inhibition at 10 µg/mL [36]: 21 to 22 mm
zone of inhibition at 10 µg/mL [37]: 21 to 22 mm
zone of inhibition at 5000 µg/mL [19]: 20.6 mm
zone of inhibition at 10 µg/mL [38]: 21 to 22 mm
zone of inhibition at 10 µg/mL [40]: 21 to 22 mm

SMILES: c1ccc2c(c1)sc1nnnn12
zone of inhibition at 600 µg/mL [42]: 15 to 20 mm

t1/2 [43]: 3.99 h
clearance [44]: 51.2 mL/min/kg
SMILES: C[C@@H](O)[C@H]1C(=O)N2C(C(=O)O)=C(S[C@@H]3CN[C@H](C(=O)N(C)C)C3)[C@H](C)[C@H]12 [MEROPENEM]
